Laboratory results reported in patent publication EP0361510B1, “Antitumor substance, process for preparing the same, and anticancer agent containing the same” (MEIJI SEIKA KAISHA LTD., priority 1988, dated 1990).
Values after ≈ are worked out from the molar mass of the structure shown. Read-outs that look alike come from different tables or passages of the source.

Tests used:
[1] = tested on: Mouse leukemia P-388 cells; experiment: Cytotoxicity on P-388 cells (MTT assay); assay type: cell-based; settings: for IC₅₀: 72 hours incubation; for IC50: Mus musculus, P388, 72 hours incubation, read-out: IC₅₀
Procedure: Cytotoxicity of the compounds according to the present invention was determined by MTT assay in the following manner.
Mouse leukemia P-388 cells were suspended in RPMI medium supplemented with 10% fetal calf serum and this suspension was used to inoculate the 96-well microplate to give a cell concentration of 2 × 10³ cells/well. The compound shown in Table 2 was dissloved in RPMI medium and add to each well for the test group, while no compound was added to wells of the control group. Incubation was carried out at 37°C for 72 hours at 5% CO₂. Then, MTT (3-(4,5-dimethylthiazol-2-yl)-2,5-diphenyl tetrazolium bromide) was added to each well to cause formation of formazan. The resulting formazan was dissolved by adding sodium dodecyl sulfate. Absorbance at 577-630 nm of each well was measured by the ELISA analyzer and 50% ihibitory concentration (IC₅₀) of each compound was calculated from the absorbance ratio of the test group to the control group.

[2] = tested on: Mouse leukemia P-388 cells; experiment: Antitumor activity in mice transplanted intraperitoneally with P-388 cells; assay type: in vivo, BDF₁ mice; settings: intraperitoneal, 24 hours after transplantation, hydrochloride
Procedure: Antitumor activity of hydrochlorides of the compounds of the present invention was determined in the following manner.
Mouse leukemia P-388 cells maintained in the abdominal cavity of BDF₁ mouse were taken out and were suspended in physiological saline to give a cell concnetration of 1 × 10⁶ cells/0.2 mℓ. The cell suspension (0.2 mℓ) was transplanted to the abdominal cavity of 5-week-old male BDF₁ mice. The compounds of the present invention as shown in Table 3 was dissolved in 0.2 mℓ of physiological saline and was intraperitoneally administered to the mouse 24 hours after the transplantation of P-388 cells. No compound was administered to the mice of the control group. The T/C% value was calculated in accordance with the following formula. [formula]

[3] = mouse, i.v.; cited from earlier work
[4] = Acute toxicity (LD50) in mice; settings: mouse, in vivo, hydrochloride, read-out: LD₅₀
Procedure: The hydrochlorides of the compounds of the present invention as shown in Table 4 were intraperitoneally or intravenously administered to mice and acute toxicity (LD₅₀) of each compound was measured.

Compound: 11-O-Butyryl SF2587 [Compound 10]
- IC₅₀ [1]: 16.0 ng/mL

Compound: 3′,11-O-diisobutyryl SF2587 [Compound 8]
- IC₅₀ [1]: 23.1 ng/mL
- Anti-P388 Activity (T/C%) ([2]; Dose 2.5 mg/kg): 113%
- Anti-P388 Activity (T/C%) ([2]; Dose 5 mg/kg): 144%
- Anti-P388 Activity (T/C%) ([2]; Dose 10 mg/kg): 175%
- Anti-P388 Activity (T/C%) ([2]; Dose 20 mg/kg): >488%
- Anti-P388 Activity (T/C%) ([2]; Dose 40 mg/kg): 69%

Compound: Cc1cc2c(c3oc(C4(C)OC4C4OC4C)cc(=O)c13)C(=O)c1c(ccc(C3CC(C)(N(C)C)C(O)C(C)O3)c1O)C2=O (centres unmarked) [SF2587]
- LD₅₀ [3]: about 5 mg/kg

Compound: 3′-O-propionyl SF2587 [Compound 3]
- IC₅₀ [1]: 19.9 ng/mL

Compound: CC(=O)Oc1c(C2CC(C)(N(C)C)C(OC(C)=O)C(C)O2)ccc2c1C(=O)c1c(cc(C)c3c(=O)cc(C4(C)OC4C4OC4C)oc13)C2=O (centres unmarked) [Compound 2, 3′, 11-O-acetyl-SF2587]
- LD50 ([4]; ip, injection route i.p.): 16 mg/kg
- LD50 ([4]; iv, injection route i.v.): 23.5 mg/kg
- IC50 [1]: 0.0231 µg/mL (≈ 0.0343 µM)
- Anti-P388 Activity (T/C%) ([2]; Dose 3.5 mg/kg): 163%
- Anti-P388 Activity (T/C%) ([2]; Dose 7 mg/kg): >200%
- Anti-P388 Activity (T/C%) ([2]; Dose 14 mg/kg): 70%

Compound: CCCC(=O)Oc1c(C2CC(C)(N(C)C)C(OC(=O)CCC)C(C)O2)ccc2c1C(=O)c1c(cc(C)c3c(=O)cc(C4(C)OC4C4OC4C)oc13)C2=O (centres unmarked) [Compound 6, 3′-11-O-dibutyryl SF2587]
- LD50 ([4]; ip, injection route i.p.): 120 mg/kg
- IC50 [1]: 0.0231 µg/mL (≈ 0.0317 µM)
- Anti-P388 Activity (T/C%) ([2]; Dose 1.25 mg/kg): 96%
- Anti-P388 Activity (T/C%) ([2]; Dose 2.5 mg/kg): 113%
- Anti-P388 Activity (T/C%) ([2]; Dose 5 mg/kg): 144%
- Anti-P388 Activity (T/C%) ([2]; Dose 10 mg/kg): 186%
- Anti-P388 Activity (T/C%) ([2]; Dose 20 mg/kg): >485%

Compound: 3′-O-Butyryl SF2587 [Compound 5]
- IC₅₀ [1]: 17.8 ng/mL
- Anti-P388 Activity (T/C%) ([2]; Dose 1.25 mg/kg): 158%
- Anti-P388 Activity (T/C%) ([2]; Dose 2.5 mg/kg): 186%
- Anti-P388 Activity (T/C%) ([2]; Dose 5 mg/kg): 72%

Compound: 3′-O-acetyl SF2587 Substance [Compound 1]
- IC₅₀ [1]: 19.4 ng/mL
- Anti-P388 Activity (T/C%) ([2]; Dose 0.25 mg/kg): 124%
- Anti-P388 Activity (T/C%) ([2]; Dose 0.5 mg/kg): 134%
- Anti-P388 Activity (T/C%) ([2]; Dose 1.0 mg/kg): 144%

Compound: CCC(=O)Oc1c(C2CC(C)(N(C)C)C(OC(=O)CC)C(C)O2)ccc2c1C(=O)c1c(cc(C)c3c(=O)cc(C4(C)OC4C4OC4C)oc13)C2=O (centres unmarked) [Compound 4, 3′,11-O-dipropionyl SF2587]
- LD50 ([4]; ip, injection route i.p.): 40 mg/kg
- IC50 [1]: 0.0181 µg/mL (≈ 0.0258 µM)
- Anti-P388 Activity (T/C%) ([2]; Dose 1.56 mg/kg): 130%
- Anti-P388 Activity (T/C%) ([2]; Dose 3.13 mg/kg): 133%
- Anti-P388 Activity (T/C%) ([2]; Dose 6.25 mg/kg): 217%
- Anti-P388 Activity (T/C%) ([2]; Dose 12.5 mg/kg): >449%
- Anti-P388 Activity (T/C%) ([2]; Dose 25 mg/kg): 71%

Compound: 3′,11-O-divaleryl SF2587 [Compound 9]
- IC₅₀ [1]: 34.3 ng/mL
- Anti-P388 Activity (T/C%) ([2]; Dose 2.5 mg/kg): 96%
- Anti-P388 Activity (T/C%) ([2]; Dose 5 mg/kg): 117%
- Anti-P388 Activity (T/C%) ([2]; Dose 10 mg/kg): 147%
- Anti-P388 Activity (T/C%) ([2]; Dose 20 mg/kg): 189%
- Anti-P388 Activity (T/C%) ([2]; Dose 40 mg/kg): 227%

Compound: 3′-O-isobutyryl SF2587 [Compound 7]
- IC₅₀ [1]: 55.2 ng/mL
